Calls of active or inactive are those of the source. The rule behind the calls is not given here.
Assays:
Mus musculus [1] = experiment: Anticonvulsant activity in CF1 albino mouse assessed as protection against maximal electroshock-induced seizures at 30 mg/kg, po after 4 hrs; assay type: functional
Mus musculus [2] = experiment: Anticonvulsant activity in CF1 albino mouse assessed as protection against maximal electroshock-induced seizures at 30 mg/kg, po after 0.25 hrs; assay type: functional
Mus musculus [3] = experiment: Anticonvulsant activity in CF1 albino mouse assessed as protection against maximal electroshock-induced seizures at 30 mg/kg, po after 2 hrs; assay type: functional
Mus musculus [4] = experiment: Anticonvulsant activity in CF1 albino mouse assessed as protection against maximal electroshock-induced seizures at 30 mg/kg, po after 0.5 hrs; assay type: functional
Mus musculus [5] = experiment: Neurotoxicity in CF1 albino mouse assessed as motor impairment at 30 mg/kg, po after 4 hrs by rotarod test; assay type: toxicity, organism-based; parameters: dose 30 mg/kg, route oral; conditions: in vivo
Mus musculus [6] = experiment: Neurotoxicity in CF1 albino mouse assessed as motor impairment at 30 mg/kg, po after 2 hrs by rotarod test; assay type: toxicity, organism-based; parameters: dose 30 mg/kg, route oral; conditions: in vivo
Mus musculus [7] = experiment: Anticonvulsant activity in CF1 albino mouse assessed as protection against maximal electroshock-induced seizures at 30 mg/kg, po after 1 hr; assay type: functional
Mus musculus [8] = experiment: Anticonvulsant activity in ip dosed CF1 albino mouse assessed as inhibition of maximal electroshock-induced seizures after 4 hrs; assay type: functional
Mus musculus [9] = experiment: Neurotoxicity in ip dosed CF1 albino mouse assessed as ability to maintain equilibrium for 1 min on […] after 0.5 hrs by rotarod test; assay type: toxicity, organism-based; conditions: in vivo
Mus musculus [10] = experiment: Neurotoxicity in CF1 albino mouse assessed as motor impairment at 30 mg/kg, po after 0.5 hrs by rotarod test; assay type: toxicity, organism-based; parameters: dose 30 mg/kg, route oral; conditions: in vivo
Mus musculus [11] = experiment: Neurotoxicity in CF1 albino mouse assessed as motor impairment at 30 mg/kg, po after 0.25 hrs by rotarod test; assay type: toxicity, organism-based; parameters: dose 30 mg/kg, route oral; conditions: in vivo
Mus musculus [12] = experiment: Neurotoxicity in ip dosed CF1 albino mouse assessed as ability to maintain equilibrium for 1 min on […] after 4 hrs by rotarod test; assay type: toxicity, organism-based; conditions: in vivo
Mus musculus [13] = experiment: Anticonvulsant activity in CF1 albino mouse assessed as inhibition of maximal electroshock-induced seizures at 300 mg/kg, ip after 0.5 hrs; assay type: functional, organism-based; parameters: dose 300 mg/kg
Mus musculus [14] = experiment: Neurotoxicity in CF1 albino mouse assessed as motor impairment at 30 mg/kg, po after 1 hr by rotarod test; assay type: toxicity, organism-based; parameters: dose 30 mg/kg, route oral; conditions: in vivo
Mus musculus [15] = experiment: Neurotoxicity in CF1 albino mouse assessed as ability to maintain equilibrium for 1 min on […] at 300 mg/kg, ip after 4 hrs by rotarod test; assay type: toxicity, organism-based; parameters: dose 300 mg/kg, route intraperitoneal; conditions: in vivo
Mus musculus [16] = experiment: Anticonvulsant activity in CF1 albino mouse assessed as inhibition of maximal electroshock-induced seizures at 300 mg/kg, ip after 4 hrs; assay type: functional, organism-based; parameters: dose 300 mg/kg
Mus musculus [17] = experiment: Neurotoxicity in CF1 albino mouse assessed as death at 300 mg/kg, ip after 0.5 hrs by rotarod test; assay type: toxicity, organism-based; parameters: dose 300 mg/kg, route intraperitoneal; conditions: in vivo
Mus musculus [18] = experiment: Anticonvulsant activity in ip dosed CF1 albino mouse assessed as inhibition of maximal electroshock-induced seizures after 0.5 hrs; assay type: functional
Mus musculus [19] = experiment: Toxicity in CF1 albino mouse assessed as myoclonic jerks at 100 mg/kg, ip after 4 hrs; assay type: organism-based; parameters: dose 100 mg/kg, route intraperitoneal; conditions: in vivo
Mus musculus [20] = experiment: Neurotoxicity in CF1 albino mouse assessed as ability to maintain equilibrium for 1 min on […] at 300 mg/kg, ip after 0.5 hrs by rotarod test; assay type: toxicity, organism-based; parameters: dose 300 mg/kg, route intraperitoneal; conditions: in vivo
Rattus norvegicus [21] = experiment: Anticonvulsant activity against maximal electroshock-induced seizures in po dosed rat assessed as time to peak effect; assay type: functional
Rattus norvegicus [22] = experiment: Anticonvulsant activity in po dosed rat assessed as inhibition of maximal electroshock-induced seizures; assay type: functional
[23] = Neurotoxicity in po dosed rat assessed as ability to maintain equilibrium for 1 min on […] by rotarod test; assay type: toxicity, organism-based; conditions: in vivo
Rattus norvegicus [24] = species: Rattus norvegicus; experiment: Protective index, ratio of TD50 for neurotoxicity in rat to ED50 for inhibition of maximal electroshock-induced seizures in rat; assay type: functional
Rattus norvegicus [25] = experiment: Anticonvulsant activity in po dosed rat assessed as inhibition of subcutaneous pentylenetetrazole-induced seizures; assay type: functional

Row | Compound | Activity (Mus musculus [1]) | Activity (Mus musculus [2]) | Activity (Mus musculus [3]) | Activity (Mus musculus [4]) | Activity (Mus musculus [5]) | Activity (Mus musculus [6]) | Activity (Mus musculus [7]) | Activity (Mus musculus [8]) [mg/kg] | Activity (Mus musculus [9]) [mg/kg] | Activity (Mus musculus [10]) | Activity (Mus musculus [11]) | Activity (Mus musculus [13]) | Activity (Mus musculus [14]) | Activity (Mus musculus [15]) | Activity (Mus musculus [16]) | Activity (Mus musculus [18]) [mg/kg] | Activity (Mus musculus [20]) | also measured
1 | O=C1CC(c2ccccc2C(F)(F)F)C(=O)N1CN1CCN(c2cccc(Cl)c2)CC1 (stereo not given) | 100% | inactive | 100% | 25% | Non-toxic | Non-toxic | 50% | 100 | 100 | Non-toxic | Non-toxic | inactive | Non-toxic | – | – | – | – | Activity (Mus musculus [12]): 100 mg/kg
2 | Cc1ccccc1C1CC(=O)N(CN2CCN(c3ccccc3F)CC2)C1=O (stereo not given) | – | – | – | – | – | – | – | – | 300 | – | – | inactive | – | Non-toxic | inactive | – | – | –
3 | COc1ccccc1N1CCN(CCN2C(=O)CC(c3ccccc3C)C2=O)CC1 (stereo not given) | – | – | – | – | – | – | – | – | 300 | – | – | inactive | – | Non-toxic | inactive | – | – | Activity (Mus musculus [17]): Toxic
4 | O=C1CC(c2ccccc2C(F)(F)F)C(=O)N1CN1CCN(c2cccc(C(F)(F)F)c2)CC1 (stereo not given) | – | – | – | – | – | – | – | 100 | 300 | – | – | – | – | Non-toxic | – | 100 | – | –
5 | COc1ccccc1N1CCN(CN2C(=O)CC(c3ccccc3C)C2=O)CC1.Cl (stereo not given) | – | – | – | – | – | – | – | – | 100 | – | – | – | – | – | inactive | 300 | – | Activity (Mus musculus [12]): 300 mg/kg; Activity (Mus musculus [19]): Toxic
6 | Cc1ccccc1C1CC(=O)N(CCCN2CCN(c3cccc(C(F)(F)F)c3)CC2)C1=O (stereo not given) | inactive | inactive | inactive | inactive | Non-toxic | 25% | inactive | 100 | – | Non-toxic | Non-toxic | – | Non-toxic | Non-toxic | – | 100 | Non-toxic | –
7 | Cc1ccccc1C1CC(=O)N(CCCN2CCN(c3cccc(Cl)c3)CC2)C1=O (stereo not given) | inactive | inactive | 25% | inactive | Non-toxic | Non-toxic | inactive | 100 | 300 | Non-toxic | Non-toxic | – | Non-toxic | Non-toxic | – | 300 | – | –
8 | Cc1ccccc1C1CC(=O)N(CN2CCN(c3cccc(Cl)c3)CC2)C1=O (stereo not given) | – | – | – | – | – | – | – | – | – | – | – | inactive | – | Non-toxic | inactive | – | Non-toxic | –
9 | O=C1CC(c2ccccc2C(F)(F)F)C(=O)N1CCN1CCN(c2ccccc2)CC1 (stereo not given) | – | – | – | – | – | – | – | – | – | – | – | inactive | – | Non-toxic | inactive | – | Non-toxic | –
10 | Cc1ccccc1C1CC(=O)N(CCN2CCN(c3ccccc3)CC2)C1=O (stereo not given) | – | – | – | – | – | – | – | – | 300 | – | – | inactive | – | Non-toxic | inactive | – | – | –
11 | O=C1CC(c2ccccc2C(F)(F)F)C(=O)N1CN1CCN(c2ccccc2)CC1 (stereo not given) | 75% | 25% | 50% | inactive | Non-toxic | Non-toxic | 25% | 30 | 300 | Non-toxic | Non-toxic | inactive | Non-toxic | Non-toxic | – | – | – | Time (Rattus norvegicus [21]): 8 h; ED50 (Rattus norvegicus [22]): 20.8 mg/kg; TD50 at 1 min [23]: > 500 mg/kg; Ratio TD50/ED50 (Rattus norvegicus [24]): >24.1; ED50 (Rattus norvegicus [25]): > 250 mg/kg
12 | Cc1ccccc1C1CC(=O)N(CCN2CCN(c3cccc(C(F)(F)F)c3)CC2)C1=O (stereo not given) | – | – | – | – | – | – | – | 300 | – | – | – | – | – | Non-toxic | – | 300 | Non-toxic | –
